# Literature values in US20250221905A1, “HAIR CARE COMPOSITION” (Conopco, Inc., d/b/a UNILEVER, priority 2022, published 2025).
# What was measured:
# [1] = tested on: 5α-reductase; conditions: background statement
# [2] = supplier Croda
sebum excess action modeled by 5α-reductase evaluation [1],HLB value [2],Molecule
reduce sebum excess action,,"CCCCCCCC(=O)NCC(=O)O [Capryloyl glycine, N-(1-oxooctyl) glycine]"
,15.5,Oleth-20 [Brij O20]
,11,Polysorbate 85 [Tween 85]
,4.9,Steareth-2 [Brij S2]
